For orientation: EC50 means the concentration giving half of the maximal effect. The low end stands for a more potent agent, the high end for a less potent agent.

Experimental findings from patent US6046228A, “Anti-viral pharmaceutical compositions containing saturated 1,2-dithiaheterocyclic compounds and uses thereof” (priority 1999, dated 2000) are described below.

The test system of one test is HIV-1 Calo-139. Put plainly: XTT cytopathicity assay, drug resistant HIV-1. Type of test: cell-based. Particulars: MT-2, Calo-139. The procedure:
(§1) Initial anti-HIV screening was performed with CEM-SS cells and HIV-1RFusing the XTT cytoprotection assay as previously described (Weislow et al., J. National Cancer Inst. 81: 577-586, (1989)). HIV-1 isolates included common laboratory stains (RF, IIIB and MN), as well as a panel of HIV-1 clinical isolates (Cushman et al., J. Med. Chem. 37: 3040-3050, (1994)). The pyridone-resistant HIV-1A17 isolate (Nunberg et al., J. Virol., 65: 4887-4892 (1991)) was obtained from Emilio Emini at Merck Sharpe and Dohme Laboratories. Phytohemagglutinin-stimulated human peripheral blood lymphocytes (PBLs) and fresh monocyte-macrophage (Mono/MF) cultures were prepared and utilized in antiviral assays as previously described (Rice et al., Proc. Nat'l. Academy Science, USA 90: 9721-9724, (1993)); (Cushman et al., J. Med. Chem. 37: 3040-3050, (1994)). EC50 values for these cultures indicate the drug concentration that provided a 50% reduction in viral p24 production. […] The compounds can be synthesized according to the teachings of Singh et al., Sulfur Letters 8: 107-114, (1988). The 4,5-cis-dihydroxy(1,1-dioxy-1,2,-dithiohexane) compound (NSC 624151) has been abbreviated as 624151 for convenience. MT-2, MT-4, U1, HeLa-CD4-LTR-β-gal and 174xCEM cells were obtained from the AIDS Research and Reference Program (National Institute of Allergy and Infectious Disease, National Institutes of Health, Bethesda, Md. USA), as were the HIV-2MS and the AZT-resistant HIV-1G910-6 isolates.
(§2) ^a Anti-HIV studies utilizing lymphocytederived cell lines were
(§3) performed using the XTT cytopathicity assay, while antiviral assays
(In general: Tetrazolium assays rely on reduction of a dye to a coloured formazan, in cell work by metabolically active cells.)

Another test concerns HIV-1 DPS-181. Put plainly: XTT cytopathicity assay, drug resistant HIV-1. Type of test: cell-based. Particulars: MT-2, DPS-181. The protocol: as §1, §2, §3
Another test concerns HIV-1 E-BPTU-181. In words: XTT cytopathicity assay, drug resistant HIV-1. Type of test: cell-based. Particulars: MT-2, E-BPTU-181. The protocol: as §1, §2, §3
The next test concerns HIV-1 HEPT-236. In words: XTT cytopathicity assay, drug resistant HIV-1. Type of test: cell-based. The following applies: MT-2, HEPT-236. The procedure:
as §1, §2, §3

A further test deals with HIV-1 OC-100. Put plainly: XTT cytopathicity assay, drug resistant HIV-1. Type of test: cell-based. Particulars: MT-2, OC-100. The protocol: as §1, §2, §3
Another test concerns HIV-1 TIBO-98/100. Put plainly: XTT cytopathicity assay, drug resistant HIV-1. Type of test: cell-based. The following applies: MT-2, TIBO-98/100. The procedure:
as §1, §2, §3

The next test relates to HIV-1 Thiazol-108. In words: XTT cytopathicity assay, drug resistant HIV-1. Type of test: cell-based. The following applies: MT-2, Thiazol-108. The procedure:
as §1, §2, §3

In the next test the test system is HIV-1 UC38-181. Put plainly: XTT cytopathicity assay, drug resistant HIV-1. Type of test: cell-based. The following applies: MT-2, UC38-181. The procedure: as §1, §2, §3
In the next test the target is T1, HIV-1 p7NC protein (Human immunodeficiency virus type 1 group M subtype B, UniProt P04591).
T1 construct: recombinant HIV-1 p7NC protein
Put plainly: TSQ zinc release assay from p7NC. Type of test: biochemical. Particulars: 10 μM, 2 hours, FIG. 1(B), in words. The procedure: Fluorescence measurements of the Trp^37 residue in the C-terminal zinc finger of the recombinant HIV-1 p7NC protein were performed as previously described (Rice et al., Science 270:1194, 1995). The p7NC protein was prepared at 20 μg/ml in 10 mM sodium phosphate buffer (pH 7.0), treated with 25 μM of each compound, then after indicated time intervals the samples were diluted 1/10 in 10 mM sodium phosphate buffer (pH 7.0) and the fluorescence intensity measured. The excitation and emission wavelengths utilized with the Shimadzu RF5000 spectrofluorimeter were 280 nm and 351 nm, respectively. In an alternate assay, the zinc-selective fluorescent probe N-(6-methoxy-8quinolyl-)-p-toluenesulfonamide (TSQ, Molecular Probes, Eugene, Oreg.) originally described by Fredrickson (J. Neurosci. Meth. 20:91, 1987) was utilized to measure zinc released from the p7NC protein in vitro. Briefly, 2 μM recombinant HIV-1 p7NC protein in 10 mM sodium phosphate buffer, pH 7.0, 10% glycerol was treated with 10 μM 624151 ([…] total volume in 96-well plates), and the time-dependent increase in fluorescence was measured on a Labsystems Fluoroskan II (360 nm excitation filter and 460 nm emission filter) over a period of 2 hours. […] Virus pellets were resolved by non-reducing SDS-PAGE and analyzed by immunoblot using monospecific rabbit antisera to the purified p7NC protein. […]

For the compound `O=S1(=O)C[C@H](O)[C@H](O)CS1` (relative stereo) [NSC 624151, cis-1,1-dioxo[1,2]dithiane-4,5-diol], the EC50 is 15 µM with HIV-1 Calo-139; 16.5 µM with HIV-1 DPS-181; 17 µM in the test on HIV-1 E-BPTU-181; 16 µM in the test on HIV-1 HEPT-236; 12.7 µM in the test on HIV-1 OC-100; 16 µM with HIV-1 TIBO-98/100. The EC50 in the test with HIV-1 Thiazol-108 and in the test on HIV-1 UC38-181 was 17 µM each time. For the same compound, the “zinc ejection from p7NC measured with TSQ” value on HIV-1 p7NC protein was “promote zinc ejection from the p7NC protein in vitro was confirmed”.
